Laboratory results: patent US20260297542A1, “HERBICIDE RESISTANT PLANTS” (SYNGENTA CROP PROTECTION AG, priority 2023, published 2026)
Changes are numbered by the printed parent chain.

How the values were obtained:
Assay in all cases: E. coli hemG growth inhibition by herbicide, AtPPO1 variant
Format in all cases: cell-based
Settings in all cases: read-out: percentage growth inhibition
AtPPO1 Y426V = molecular target: T1, AtPPO1 Y426V (Arabidopsis thaliana, UniProt P55826, Y426V)
T1 construct: expressed in transfected cells; host or cells: E. coli BL21(DE3) hemG (pET24a, T7 promoter)
T1 sequence (P55826 35-537 Y426V): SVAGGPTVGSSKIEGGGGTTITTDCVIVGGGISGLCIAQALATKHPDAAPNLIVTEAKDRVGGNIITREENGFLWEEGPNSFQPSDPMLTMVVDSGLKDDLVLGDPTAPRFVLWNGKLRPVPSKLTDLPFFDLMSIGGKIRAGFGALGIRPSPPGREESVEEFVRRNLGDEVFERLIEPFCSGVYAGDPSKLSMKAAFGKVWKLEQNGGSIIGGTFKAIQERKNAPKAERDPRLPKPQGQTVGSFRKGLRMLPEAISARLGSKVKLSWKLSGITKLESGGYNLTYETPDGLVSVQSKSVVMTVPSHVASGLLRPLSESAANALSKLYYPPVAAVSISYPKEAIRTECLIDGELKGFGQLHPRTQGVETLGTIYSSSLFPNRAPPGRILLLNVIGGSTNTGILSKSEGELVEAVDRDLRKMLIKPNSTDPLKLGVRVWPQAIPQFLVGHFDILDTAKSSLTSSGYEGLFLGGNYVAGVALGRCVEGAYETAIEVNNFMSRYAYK
Method in brief: (§1)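 E. coli BL21(DE3) ΔhemG::CmR complemented by AtPPO1 variants (pET24a, T7, E. coli codon-optimised); TB + 0.1 mM IPTG, 1:100 inoculum; 6.25 ppm herbicide 0/E or 0.78 ppm herbicide B vs DMSO; 24 h, 37° C, 250 rpm; OD600 at 24 h → % growth inhibition.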

AtPPO1 G481K = molecular target: T2, AtPPO1 G481K (Arabidopsis thaliana, UniProt P55826, G481K)
T2 construct: expressed in transfected cells; host or cells: E. coli BL21(DE3) hemG, pET24a plasmid
T2 sequence (P55826 35-537 G481K): T1 sequence (P55826 35-537 Y426V) with V392Y, G447K
Method in brief: as §1

AtPPO1 L360C = molecular target: T3, AtPPO1 L360C (Arabidopsis thaliana, UniProt P55826, L360C)
T3 construct: expressed in transfected cells; host or cells: E. coli BL21(DE3) hemG (pET24a, T7 promoter)
T3 sequence (P55826 35-537 L360C): T1 sequence (P55826 35-537 Y426V) with L326C, V392Y
Method in brief: as §1

AtPPO1 R284G = molecular target: T4, AtPPO1 R284G (Arabidopsis thaliana, UniProt P55826, R284G)
T4 construct: expressed in transfected cells; host or cells: E. coli BL21(DE3) hemG (pET24a, T7 promoter)
T4 sequence (P55826 35-537 R284G): T1 sequence (P55826 35-537 Y426V) with R250G, V392Y
Method in brief: as §1

SMILES: CCOC(=O)[C@]1(C)CC(c2cc(-n3c(=O)n(C)c(=S)n(C)c3=O)c(F)cc2Cl)=NO1 [Herbicide D, ethyl (5S)-3-[2-chloro-5-(3,5-dimethyl-2,6-dioxo-4-thioxo-1,3,5-triazinan-1-yl)-4-fluoro-phenyl]-5-methyl-4H-isoxazole-5-carboxylate]
- inhibition at 6.25 ppm (AtPPO1 Y426V): 16%
- inhibition at 6.25 ppm (AtPPO1 G481K): 12%
- inhibition at 6.25 ppm (AtPPO1 L360C): 21%
- inhibition at 6.25 ppm (AtPPO1 R284G): 37%

SMILES: C#CCN1C(=O)C(F)(F)Oc2cc(F)c(-n3c(=O)n(C)c(=S)n(C)c3=O)cc21 [Herbicide B, trifludimoxazin]
- inhibition at 0.78 ppm (AtPPO1 Y426V): 5%
- inhibition at 0.78 ppm (AtPPO1 G481K): 10%
- inhibition at 0.78 ppm (AtPPO1 L360C): 25%
- inhibition at 0.78 ppm (AtPPO1 R284G): 35%

SMILES: CC(C)N(C)S(=O)(=O)NC(=O)c1cc(-n2c(=O)cc(C(F)(F)F)n(C)c2=O)c(F)cc1Cl [Herbicide E, saflufenacil]
- inhibition at 6.25 ppm (AtPPO1 Y426V): 7%
- inhibition at 6.25 ppm (AtPPO1 G481K): 0%
- inhibition at 6.25 ppm (AtPPO1 L360C): 33%
- inhibition at 6.25 ppm (AtPPO1 R284G): 60%
